Values quoted from earlier work, collected in patent US20250163027A1, “GPR88-RECEPTOR-AGONIST” (Boehringer Ingelheim International GmbH, priority 2023, published 2025).

Molecular target: hGPR88 receptor (Homo sapiens, UniProt Q9GZN0)
Conditions: value marked * : cAMP assay, not BRET

Sequence of hGPR88 receptor (Q9GZN0 whole entry): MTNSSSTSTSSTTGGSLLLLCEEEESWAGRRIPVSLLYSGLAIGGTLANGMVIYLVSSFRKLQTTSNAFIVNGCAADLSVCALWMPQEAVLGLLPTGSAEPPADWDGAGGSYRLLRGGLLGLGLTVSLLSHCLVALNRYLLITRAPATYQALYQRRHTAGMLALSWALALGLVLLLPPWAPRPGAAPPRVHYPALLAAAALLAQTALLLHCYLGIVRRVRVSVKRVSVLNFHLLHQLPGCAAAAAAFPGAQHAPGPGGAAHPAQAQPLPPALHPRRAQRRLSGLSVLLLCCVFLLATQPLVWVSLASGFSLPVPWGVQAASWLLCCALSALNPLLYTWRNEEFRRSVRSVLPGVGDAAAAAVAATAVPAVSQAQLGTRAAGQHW

Q: For COCc1ccc(-c2ccc(N(CC(C)(C)O)C(=O)C3CC3c3ccccn3)cc2)cc1 (stereo not shown) [Ex 141 in WO2022/129933], which EC50 is on record?
A: > 5 µM
